Experimental data as given in patent publication US7129218B2, “Use of rhamnolipids in wound healing, treatment and prevention of gum disease and periodontal regeneration” (Paradigm Biomedical, Inc., priority 1999, dated 2006).
Counter-ions that a name gives are not always drawn.

Key:
burn wounds = experiment: Burn wounds, 7% body surface, topical treatment (rats); format: in vivo, Sprague-Dawley rats; conditions: 1% chlorhexidine hydrochloride in combination with BAC-3 in ointment, burn wounds
Method: The wounding of animals was performed according to the Protocol for Animal Use and Care at the University of California-Davis (hereafter UC-Davis). The entire animal protocol required 70 Sprague-Dawley rats: 30 rats for incision wounds and 40 rats for burn wounds. Among them 36 rats were burned over 7% of their skin and 4 rats were burned over 15% of their skin. Incision wounds of whole skin and burn wounds were treated topically with 2 test doses of the pharmaceutical preparation of di-rhamnolipid BAC-3. […] D.E.A. Hamburg); 23.8 g Lanolinum (Producer I.O.I. Hamburg); 4.7 g Cholesterin (Producer: Solvay, Wiena, Austria); Water Number: 320); or b). 1%; 0.1% active rhamnolipid (BAC-3) with antiseptic (chlorhexidine hydrochloride-[…]). Eucerin with BAC-3 was administrated twice daily during healing. The same experiment had one control group without the treatment, and one control group which was treated with ointment+1% chlorhexidine hydrochloride. During the experiment, animal body weight and behavior was checked every third day, and photographs were taken periodically. Burn wounds. The consecutive burn wounds should ideally be identical in depth and extent. The standard method defines the size and location of the burn wound, the temperature gradient, duration of exposure and method of applying the burn. The wound surface areas tested were of two different sizes. One size to 7% of the body surface, which enables one to compare the rate of wound healing with different percentage of BAC-3 and the other size to 15% of the body surface, which is a sufficient size so that healing could not occur by contraction alone. On the other hand, the total wound surface area should not cause major systematic problems. The latter can be concluded from undisturbed weight gain of the animals. The standard animal burn was performed by techniques and device described by Walker. The burning devices were prepared using a model device ordered from U.S. Army Surgical Research Unit, Experimental Surgery, Army Medical Center, Fort Sam Houston, Tex. 78234. […] The surface of the skin was measured for every animal using Mech's formula: A=kW^2/3; A=surface area in cm^2; W=body weight in grams; k=10. Method of burning. Each animal was anesthetized with sodium pentobarbital administered i/p (5 mg/25 g). (Producer: Veterinary Laboratory Inc. Lenexa, Kans.). The hair over the dorsum was clipped with animal clippers. The animal was placed supine in the burning device and the extremities were tied; the malleable retractor was placed over the animal and secured snugly with plastic straps. The entire device was then picked up by the retractor ends with forceps and the exposed area was immersed in boiling water. Ten seconds of exposure was sufficient to produce a full-thickness burn. On removal from the water, the dorsum was quickly dried by rolling on a towel and the animal was released and individually caged. This procedure produced a uniform burn with sharp margins. On post burn days 7, 14 and 45, animals were sacrificed by overdose of sodium pentobarbital and skin specimens were taken for histopathology. Specimens included the wound bed as well as the healthy skin of the wound margins. The specimens were fixed, and two stainings were routinely performed: Hematoxylin-Eosin (H&E) for microscopic evaluation, Verhoeff's staining for a better visualization of the crust and the regenerating dermis, and the alpha smooth muscle acting to identify the myofibroblasts. Microscopic findings were interpreted by a veterinarian pathologist. During the microscopic and macroscopic observations, four wound healing parameters were evaluated: crust formation, re-epithelialization, formation of granulation tissue and inflammation. 36 rats were divided into 6 groups. Each group had six animals. After burning rats according to the above-described procedure, each rat was caged individually. […]

Wistar Kyoto (WKY) rats [1] = conditions: cited from earlier work
Wistar Kyoto (WKY) rats [2] = conditions: cited from earlier work; remark: listed apart in the source
mice = conditions: doses that failed to produce antidepressant effects in control animals; cited from earlier work

In the case of [H]/N=C(\N/C(=N/[H])NCCCCCCNC(=N)NC(=N)Nc1ccc(Cl)cc1)Nc1ccc(Cl)cc1 [chlorhexidine hydrochloride, reference compound], the “wound irritation (rats scratched the wounds)” value (burn wounds) is reported as “irritated wounds”.
In the case of CNCCCN1c2ccccc2CCc2ccccc21 [desipramine], the “incidence of stress ulcer” value (Wistar Kyoto (WKY) rats [1]) is listed as “reduces” and the “immobility in the forced swim test” value (Wistar Kyoto (WKY) rats [2]) is listed as “reduces”.
In the case of Cc1nc2n(c(=O)c1CCN1CCC(c3noc4cc(F)ccc34)CC1)CCCC2 [risperidone], the “PCP-induced enhancement of immobility in the forced swimming test” value (mice) is listed as “attenuated”.
In the case of Cc1nc2sccn2c(=O)c1CCN1CCC(=C(c2ccc(F)cc2)c2ccc(F)cc2)CC1 [ritanserin], the “PCP-induced enhancement of immobility in the forced swimming test” value (mice) is given as “attenuated”.
